Test results published in patent publication US7910551B2, “Gene differentially expressed in breast and bladder cancer and encoded polypeptides” (University of Rochester, priority 2000, dated 2011).

Test system: B/C.N cells
Assay: CML assay: peptide sensitization of B/C.N cells to lysis by tumor-specific CTL
Type: cell-based, mouse
Conditions: for ability to sensitize B/C.N cells to lysis by tumor-specific CTL: 51Cr release, 4 hours

Substance	ability to sensitize B/C.N cells to lysis by tumor-specific CTL	peptide concentration sufficient to sensitize targets to lysis by CTL (B/C.N targets)	peptide concentration that did not sensitize targets to lysis by CTL (B/C.N targets)
L345-54 (I54): ribosomal protein L3 peptide, amino acids 45-54 with Ile 54 (AFLGYKAGMI)	did not	–	–
L348-56 (I54): ribosomal protein L3 peptide, amino acids 48-56 with Ile 54; target epitope of tumor-specific CTL (GYKAGMIHI)	sensitized B/C.N to lysis	10 nM	–
L348-56 (T54): wild type ribosomal protein L3 peptide 48-56 with Thr 54 (GYKAGMTHI) [reference compound]	did not	–	> 100 mM
